{
  "source": "patent US20120046327A1",
  "about": "“METHOD FOR INHIBITING THE INDUCTION AND FORMATION OF OSTEOCLASTS” (OSAKA UNIVERSITY, priority 2005, published 2012)",
  "key": {"[1]": {"tested_on": "RANKL (Receptor Activator of NK-κB Ligand) in human osteoblasts", "test": "sRANKL expression increased by AngII in human osteoblasts", "format": "cell-based", "conditions": "two-day cultivation", "experimental": "Purpose: Using human osteoblasts, expression of RANKL (Receptor Activator of NK-κB Ligand) which increases with angiotensin 2 (AngII) was measured. Then, inhibitory effect of olmesartan doxomil was examined.\nMethods: Human osteoblasts (Clonetics Corp., Palo Alto, Calif.) were cultured in DMEM medium under conditions of 10% FCS, 5% CO2 and 37° C. AngII (1 μM) (Sigma) was added to the culture. After two-day cultivation, sRANKL (soluble Receptor Activator of NK-κB Ligand) contained in the culture supernatant was examined by […] (Biomedica). Further, effect produced by simultaneous administration of olmesartan (1 μM) or angiotensin type II receptor antagonist PD (123319) (chemical name: (S)-1-(4-[dimethylamino]-3-methylphenyl)methyl-5-(diphenylacetyl)-4,5,6,7-tetrahydro-1H-imidazo[4,5-c]pyridine-6-carboxylate) (1 μM) (Sigma-aldrich) was also examined."}, "[2]": {"tested_on": "osteoclasts (TRAP positive multinucleated cells) in domestic rabbit bone marrow culture system", "test": "Osteoclast formation induced by active vitamin D3 in domestic rabbit bone marrow culture (TRAP staining)", "format": "cell-based, domestic rabbit (New Zealand White Rabbit)", "experimental": "Purpose: Using a domestic rabbit bone marrow culture system, the number of osteoclasts which were differentiation-induced by active vitamin D3 was measured. Then, inhibitory effect of olmesartan medoxomil was examined.\nMethods: A three-day-old domestic rabbit (New Zealand White Rabbit) was sacrificed, followed by removal of the thigh bone and the tibia. After collection of the bone marrow, the leukocyte (granulocyte-monocyte) fraction was isolated and cultured under conditions of α-MEM, 10% FBS, 5% CO2, 37° C. 24-well culture plates were used for the culture. The cell count was adjusted to 5×10^4 cells/well. Active vitamin D3 (10^−8M) was added to the culture system. On day 3, 7 and 10 of the culture, cells were fixed with 4% paraformaldehyde and stained with tartarate-resistant acid phosphatase (TRAP staining) under acidic conditions (pH 5.0). The number of multinucleated cells stained with red (osteoclasts) was measured. Similar measurement was performed with addition of olmesartan at concentrations of 10^−8, 10^−7 and 10^−6M. With respect to TRAP positive cells (generally, containing 1 to 100 nuclei in one cell), they were divided into three groups depending on the degree of fusion: small cells (containing 1 to 2 nuclei), medium cells (containing 3 to 9 nuclei) and large cells (containing 10 or more nuclei)."}, "[3]": {"tested_on": "TRAP (tartarate-resistant acid phosphatase) activity in the thigh bone", "test": "TRAP activity in the thigh bone of ovariectomized spontaneously hypertensive rats", "format": "in vivo, spontaneously hypertensive rats (SHR)", "conditions": "osmotic pump, one month after ovariectomy, ovariectomy group 76.9±9.9, non-treatment 59.6±1.0", "experimental": "(§1) Purpose: Using spontaneously hypertensive rats, increase in TRAP (tartarate-resistant acid phosphatase) activity in the thigh bone and decrease in the bone density after ovariectomy were measured. Then, inhibitory effects of olmesartan medoxomil against TRAP activity increase and bone density decrease were examined. TRAP is a marker enzyme for osteoclasts, and TRAP activity increases when osteoclasts are activated. When osteoclasts are activated, bone is resorbed and thus bone density is decreased.\n(§2) Methods: The ovary was removed from 8-week-old female spontaneously hypertensive rats (SHR) (Charles River). After one month observation, the thigh bone was removed, followed by measurement of TRAP activity in the bone (Walter K., et al., Method of Enzymatic Analysis, Academic Press, New York & London: 1974; 856-870) and simultaneous measurement of bone density (Venken K., et al., Bone 2005; 36: 663-670). Further, from immediately after the ovariectomy, olmesartan was administered subcutaneously at two different concentrations of 0.5 mg/kg/day and 1 mg/kg/day using an osmotic pressure pump (Alzet model 2004; Alza Corp)."}, "[4]": {"test": "Bone density, bone length and weight in ovariectomized spontaneously hypertensive rats", "format": "in vivo, spontaneously hypertensive rats (SHR)", "conditions": "one month after ovariectomy, ovariectomy group 0.1438±0.003445, non-treatment 0.1685±0.002684", "experimental": "as §1, §2\nAlthough administration of olmesartan brought no changes in the length and weight of the bone, concentration dependent decrease was recognized in TRAP activity in the thigh bone (Ovariectomy+ARB0.5 group: 71.7±8.7 U/L; Ovariectomy+ARB 1 group: 66.1±3.6 U/L). […]"}, "[5]": {"test": "Blood pressure and heart rate in ovariectomized spontaneously hypertensive rats (Table A)", "format": "in vivo, spontaneously hypertensive rats (SHR)", "conditions": "average value; for Blood Pressure (diastolic): ovariectomy group 94.6667; for Blood Pressure (average): ovariectomy group 107; for Blood Pressure (systolic): ovariectomy group 131.667", "experimental": "as §2\nAlthough administration of olmesartan brought no changes in the length and weight of the bone, concentration dependent decrease was recognized in TRAP activity in the thigh bone (Ovariectomy+ARB0.5 group: 71.7±8.7 U/L; Ovariectomy+ARB 1 group: 66.1±3.6 U/L). Concentration dependent decrease in blood pressure was also recognized as a result of administration of olmesartan (Table A)."}, "[6]": {"conditions": "AngII 1 μM plus test substance 1 μM added simultaneously, AngII group 1.045±0.129, control 0.133±0.0271"}, "[7]": {"conditions": "Ovariectomy + 1 mg/kg/day (n = 3)"}},
  "data": [
    {"compound": "Cc1cc(Cn2cnc3c2C[C@@H](C(=O)O)N(C(=O)C(c2ccccc2)c2ccccc2)C3)ccc1N(C)C", "note": "[PD (123319), (S)-1-(4-[dimethylamino]-3-methylphenyl)methyl-5-(diphenylacetyl)-4,5,6,7-tetrahydro-1H-imidazo[4,5-c]pyridine-6-carboxylate]", "values": [
      {"measurement": "sRANKL in culture supernatant", "setting": "[1]; [6]", "value": "0.747 ± 0.0855", "unit": "pM"}
    ]},
    {"compound": "CCCc1nc(C(C)(C)O)c(C(=O)O)n1Cc1ccc(-c2ccccc2-c2nnn[nH]2)cc1", "note": "[olmesartan, 4-(1-hydroxy-1-methylethyl)-2-propyl-1-[4-[2-(tetrazole-5-yl)phenyl]phenyl]methylimidazole-5-carboxylic acid]", "values": [
      {"measurement": "growth of coexisting mesenchymal cells", "setting": "[2]; any of the groups (10^−8, 10^−7, 10^−6 M)", "value": "no remarkable change"},
      {"measurement": "TRAP positive cells, average cell count, medium cells (containing 3 to 9 nuclei)", "setting": "[2]; day 10, olmesartan 10^−6 M, active vitamin D3 10^−8M, control 68.6", "value": 50.2},
      {"measurement": "TRAP positive cells, average cell count, large cells (containing 10 or more nuclei)", "setting": "[2]; day 10, olmesartan 10^−6 M, active vitamin D3 10^−8M, control 80.6", "value": 23.0},
      {"measurement": "TRAP positive cells, average cell count, small cells (containing 1 to 2 nuclei)", "setting": "[2]; day 10, olmesartan 10^−6 M, active vitamin D3 10^−8M, control 101.6", "value": 192.8},
      {"measurement": "fusion of mononuclear cells", "setting": "[2]; olmesartan 10^−6 M, day 3, compared to control group", "value": "significantly reduced"},
      {"measurement": "change in TRAP positive cell count compared to the control group", "setting": "[2]; olmesartan 10^−6 M, day 10", "value": "a significant reduction"},
      {"measurement": "change in TRAP positive cell count compared to the control group", "setting": "[2]; olmesartan 10^−7 M, day 10", "value": "a reduction in TRAP positive cell count"},
      {"measurement": "change in TRAP positive cell count compared to the control group", "setting": "[2]; olmesartan 10^−8 M", "value": "no remarkable change"},
      {"measurement": "osteoclasts contributing to bone resorption (medium and large cells)", "setting": "[2]; olmesartan addition groups, control group 149.2, p<0.05", "value": 73.2},
      {"measurement": "total number of TRAP positive, multinucleated cells", "setting": "[2]; olmesartan addition groups, control group 250.8, no statistically significant difference", "value": 265.0},
      {"measurement": "sRANKL in culture supernatant", "setting": "[1]; [6]", "value": "0.0442 ± 0.0328", "unit": "pM"},
      {"measurement": "TRAP activity in the thigh bone", "setting": "[3]; 0.5 mg/kg/day subcutaneously", "value": "71.7±8.7", "unit": "U/L"},
      {"measurement": "TRAP activity in the thigh bone", "setting": "[3]; 1 mg/kg/day subcutaneously", "value": "66.1±3.6", "unit": "U/L"},
      {"measurement": "bone density (dual-energy X-ray absorptiometry)", "setting": "[4]; 0.5 mg/kg/day subcutaneously", "value": "0.1527±0.003454", "unit": "g/cm^2"},
      {"measurement": "bone density (dual-energy X-ray absorptiometry)", "setting": "[4]; 1 mg/kg/day subcutaneously", "value": "0.1539±0.004365", "unit": "g/cm^2"},
      {"measurement": "Blood Pressure (diastolic)", "setting": "[5]; Ovariectomy + 0.5 mg/kg/day", "value": 68.3333},
      {"measurement": "Blood Pressure (average)", "setting": "[5]; Ovariectomy + 0.5 mg/kg/day", "value": 81.3333},
      {"measurement": "Blood Pressure (systolic)", "setting": "[5]; Ovariectomy + 0.5 mg/kg/day", "value": 107},
      {"measurement": "Blood Pressure (diastolic)", "setting": "[5]; [7]", "value": 45.8},
      {"measurement": "Blood Pressure (average)", "setting": "[5]; [7]", "value": 56.25},
      {"measurement": "Blood Pressure (systolic)", "setting": "[5]; [7]", "value": 70.8}
    ]},
    {"compound": "AngII: angiotensin 2 (AngII) (Sigma), added at 1 μM to human osteoblast culture; increases RANKL expression (DRVYIHPF; Angiotensin-2; UniProt P01019 25-32, looked up)", "values": [
      {"measurement": "sRANKL in culture supernatant", "setting": "[1]; AngII 1 μM alone, non-addition control 0.133±0.0271", "value": "1.045 ± 0.129", "unit": "pM"}
    ]}
  ]
}
